Laboratory results from patent publication US11160767B2, “4,4′-trans-dihydroxystilbene for use in treating cancer” (The George Washington University, a Congressionally …, priority 2017, dated 2021).

Tests used:
[1] = tested on: MDA-231/GFP; assay: In vitro cytotoxicity (SRB assay), MDA-231/GFP; assay type: cell-based; conditions: Homo sapiens, MDA-MB-231, 72 hours
Procedure: (§1) Cell lines and cell culture. HCT116, U205, PANC-1, MDA-231 cell lines were purchased from the American Type Culture Collection (Rockville, Md., US). Cells were cultured in the DMEM medium (Lonza, Basel, Switzerland) containing 10% fetal bovine serum (Gibco, Grand Island, N.Y., US), 100 Units/ml penicillin, 100 Units/mL streptomycin, […] L-glutamine (Gibco, Grand Island, N.Y., US) at 37° C. in a humidified atmosphere with 5% CO2.
(§2) In vitro cytotoxicity assays. […] SRB assay (Vichai and Kirtikara, 2006) was performed and the absorbance at 510 nm was read with a plate reader. The proliferation rate was calculated according to the Manufacturer's instruction. The IC50 value for each compound was determined from dose-effect relationship using the CompuSyn software (version 1.0.1; CompuSyn, Inc, Paramus, N.J.) (Chou, 2006). Cell proliferating doubling time was monitored over a period of 72 hours.

[2] = tested on: HCT116 cells; assay: DNA fiber assay; assay type: cell-based, human
Procedure: Thus, the effect of DHS on DNA replication and cell cycle progression was investigated. Replication fork speeds were examined by DNA fiber assay (FIG. 7A). Briefly, DHS, hydroxyurea (Hu), or Aphidicolin (Aph) was added to HCT116 cells 2 hours prior to labeling of DNA with iododeoxyuridine (IdU) and/or chlorodeoxyuridine (CldU).

[3] = tested on: plasmid DNA; assay: Incubation with plasmid DNA, UV absorption; assay type: binding
Source text: (§3) In addition, resveratrol has been previously reported to interact with DNA grooves (Usha et al., 2006). […] A similar result with And-1, RRM1, and RRM2 was also observed in DHS resistant HCT116 cells (data not shown).

[4] = target: T1, RRM2 (Homo sapiens, UniProt P31350); assay: Ubiquitination assay; assay type: cell-based; conditions: HCT116 cells, with MG-132 pre-treatment
T1 construct: endogenous in cells; host or cells: HCT116
T1 sequence (P31350 1-389): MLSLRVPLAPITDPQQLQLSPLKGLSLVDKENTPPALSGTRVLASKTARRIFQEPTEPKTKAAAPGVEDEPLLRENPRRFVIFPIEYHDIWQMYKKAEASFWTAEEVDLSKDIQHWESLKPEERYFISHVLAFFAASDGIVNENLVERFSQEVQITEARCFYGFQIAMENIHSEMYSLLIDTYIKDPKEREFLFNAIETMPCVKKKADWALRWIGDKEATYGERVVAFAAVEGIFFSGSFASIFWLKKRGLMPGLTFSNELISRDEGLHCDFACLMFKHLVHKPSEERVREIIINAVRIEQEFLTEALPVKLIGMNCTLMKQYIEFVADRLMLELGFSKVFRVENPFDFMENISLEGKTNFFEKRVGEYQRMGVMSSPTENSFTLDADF
Procedure: It was next investigated whether treatment with DHS leads to reduced levels of RRM2 through the proteasome degradation pathway. […] To confirm whether degradation of RRM1 is dependent on RRM2, RRM1 or RRM2 expression was knocked down by treatment with siRNAs and resultant protein amounts were detected. […] Next, a ubiquitination assay with MG-132 pre-treatment was performed to determine whether a ubiquitination reaction is involved in DHS-mediated RRM2 degradation. […] According to the literature, Cyclin F is the E3 ligase that ubiquitinates RRM2 (D'Angiolella et al., 2012). Thus, the amount of RRM2 in cells was determined after knockdown of Cyclin F by siRNA. […] Cell viability after DHS exposure was also investigated in cells in which either RRM2 or Cyclin F expression was knocked down by siRNA.

[5] = tested on: HCT116 cells; assay: Cell-cycle assay; assay type: cell-based, human; conditions: 10 μM
Procedure: A cell-cycle assay was conducted to study whether DHS would affect cell-cycle progression.

[6] = tested on: U2OS; assay: In vitro cytotoxicity (SRB assay), U2OS; assay type: cell-based; conditions: Homo sapiens, 72 hours
Procedure: as §1, §2

[7] = tested on: phosphor-Chk1 (pChk1, Serine 345); assay: DNA damage markers by Western blot; assay type: cell-based, human; conditions: HCT116 cells, 10 μM for 20 minutes
Procedure: Western blot analysis. Compound-treated cells were harvested and lysed. Protein extracts were subjected to electrophoresis in a SDS-polyacrylamide gel. The resolved proteins were transferred onto polyvinylidene difluoride membranes (Amersham Biosciences, Piscataway, N.J., US). After the blocking step, membranes were incubated with primary IgG antibodies, washed, and then incubated with horseradish peroxidase-conjugated anti-rabbit IgG or anti-mouse IgG secondary antibodies. Western blot signals were visualized by chemiluminescence using SuperSignal West Pico chemiluminescence reagent (Pierce, Rockford, Ill., US).
To investigate whether inhibition of DNA replication by DHS can trigger DNA damage, the DNA damage markers phosphor-Chk1 (pChk1, Serine 345) and phosphor-Chk2 (pChk2, Threonine 68) were analyzed in DHS-treated HCT116 cells. […] A comet assay was next used to test if DNA double strand breaks are induced by DHS.

[8] = tested on: Topoisomerase II; assay: Topoisomerase II decatenation assay; assay type: biochemical
Source text: as §3

[9] = tested on: SKOV3-CP7; assay: DHS and cisplatin, SKOV3-CP7 cells; assay type: cell-based, human
Source text: The effect of DHS on a human SKOV3 ovarian cell line and its cisplatin-resistant subline, SKOV3/CP7, was investigated.

[10] = tested on: KB, KB-Gem and KB-Hu; assay: Cell survival of KB and resistant sublines; assay type: cell-based
Procedure: An oral cancer cell line, KB, and its gemcitabine-resistant and hydroxyurea resistant sublines, KB-Gem and KB-Hu, respectively, were treated with gemcitabine (FIG. 15A), hydroxyurea (FIG. 15B), or DHS (FIG. 15C).
Next, the effect of combined treatment with DHS and Gemcitabine or Hydroxyurea was investigated.

[11] = target: purified RRM2 protein (Homo sapiens, UniProt P31350); assay: In vitro thermal shift assay with purified protein; assay type: binding; conditions: purified RRM1 and RRM2 mixed, incubated 4 hours
Procedure: To investigate binding of DHS to RRM1 and RRM2, a thermal shift assay was performed in HCT116 cells treated with DMSO (vehicle), resveratrol, DHS, gemcitabine, or hydroxyurea (Hu). Gemcitabine is known to bind RRM1 (Plunkett et al., 1995 and Chen et al., 2011), and Hu has been reported to bind RRM2 (Thelander et al., 1985). […] DHS stabilized RRM2 protein in a dose responsive manner (5 to 20 μM DHS; FIG. 11A). To rule out nonspecific effects of DHS on RRM2, an in vitro thermal shift assay was conducted. Purified RRM1 and RRM2 were mixed and then incubated with DHS or Hu for 4 hours before performing the assay.

## Oc1ccc(/C=C/c2ccc(O)cc2)cc1 [DHS, 4,4′-trans-dihydroxystilbene]
[1]
  IC50: 5.32 ± 3.38 µM
[2]
  Rate of replication fork progression (folk speed): significantly reduced
[2]; added 2 hours prior to labeling
  DNA replication stalling: dramatically caused DNA replication stalling
[3]
  UV absorption on incubation with plasmid DNA (DNA binding): increased UV absorption
[4]
  Ubiquitinated RRM2: ubiquitinated RRM2 was increased by DHS treatment
[5]
  Effect on cell-cycle progression: robust S-phase arrest
[6]
  IC50: 1.23 ± 0.73 µM
[7]
  DNA damage (phosphorylated CHK1, pSerine 345): more potent than resveratrol and the other analogs
[8]
  Topoisomerase II activity (decatenation of kDNA): inhibits Topoisomerase II activity
[9]
  Re-sensitisation to cisplatin: re-sensitized the SKOV3/CP7 cells to cisplatin
  Sensitivity to DHS alone: sensitive to DHS treatment alone
[10]; KB, KB-Gem, KB-Hu, DHS alone
  Cell survival of resistant sublines: overcame gemcitabine and hydroxyurea resistance
[10]; KB-Gem and KB-Hu, 10 μM DHS
  Resensitisation to gemcitabine and hydroxyurea: resensitized cultured KB-gem and KB-Hu cell lines to gemcitabine and hydroxyurea
[11]
  Stabilisation of purified RRM2 after high temperature incubation: stabilized purified RRM2 protein
